Experimental data from patent US20230149504A1, “A[…] USE IN HUMAN VIRAL INFECTIONS” (DEBIOPHARM INTERNATIONAL SA, priority 2020, published 2023).
pEC50: −log10 of the molar value.

Columns and labels:
[1] = system: clinical isolate of SARS-CoV-2
SARS-CoV-2 = experiment: Example 1B: immunofluorescence (anti-dsRNA) quantification of SARS-CoV-2-infected Vero E6 cells; format: cell-based; conditions: at 10 μM, MOI 0.4, 24 h (FIG. 3)
Description: FIG. 3 represents the experiment scheme of a SARS-CoV-2 infection of Vero E6 cells at an MOI of 0.4 and the percentage of infected cells assessed by immunofluorescence (IF) in the presence of increasing concentrations of alisporivir.
The anti-SARS-CoV-2 effectiveness of alisporivir was confirmed by immunofluorescence. Vero E6 cells were infected by SARS-CoV-2 at an MOI of 0.4 for 2 h in the presence of increasing concentrations of alisporivir (1, 5 and 10 μM). After virus removal, infected cells were incubated for 24 h in the presence of alisporivir and immunostained with an anti-double-stranded-RNA (dsRNA) antibody. Infected cells were quantified using ImageJ software.

SARS-Cov-1 = conditions: cited from earlier work
in vitro [2] = conditions: African green monkey
[3] = system: SARS-Cov-2 (isolate from patient infected in Paris)
in vitro [4] = conditions: African green monkey; remark: listed apart in the source

## C/C=C/C[C@@H](C)[C@@H](O)[C@H]1C(=O)N[C@@H](CC)C(=O)N(C)[C@H](C)C(=O)N(CC)[C@@H](C(C)C)C(=O)N[C@@H](C(C)C)C(=O)N(C)[C@@H](CC(C)C)C(=O)N[C@@H](C)C(=O)N[C@H](C)C(=O)N(C)[C@@H](CC(C)C)C(=O)N(C)[C@@H](CC(C)C)C(=O)N(C)[C@@H](C(C)C)C(=O)N1C [alisporivir, [D-MeAla]3-[EtVal]4-CsA]
VeroE6 cells
  cytotoxicity: not cytotoxic
[1]
  maximum viral RNA reduction: 2 log 10
[1]; clinical isolate of, 2 h
  therapeutic index: more than 43
[1]; clinical isolate of, 48 h
  pEC50: 6.34
  EC90: 3.1 µM
SARS-CoV-2
  inhibition of the number of SARS-CoV-2-infected cells (immunofluorescence): complete inhibition
SARS-Cov-1
  fold higher EC50 against SARS-Cov-1 than for HCV replicon: 10.-50 fold
SARS-Cov-1; read-out: EC50 in vitro against different SARS-Cov-1
  pEC50: 5.00 to 5.70
In vitro [2]
  CC50: > 20 µM
[3]
  pEC50: 6.27
  percentage of inhibition of SARS-CoV-2 RNA production in cell culture supernatant: > 90%
In vitro [4]
  selectivity ratio: > 37
